The text below walks through data of patent US9321717B2, “Process for rapid identification and preparation of crystalline forms” (Allergan, Inc., priority 2011, dated 2016).

Series [1] is described as follows: Form risk assessment (FRA) crystallization workflow with XRPD form identification. It counts as physicochemical. Conditions: for FRA_TC: forms from thermocycled slurrying; for Forms Found by FRA: model compounds, crystalline, used as received, * = low energy form; for FRA_EV: forms from evaporation. From the text:
However, certain basic elements of the polymorph screening experiments are incorporated, such as solubility estimation, solvent-mediated form transformation, as well as super saturation adjustment by cooling, antisolvent addition, and evaporation, etc. The following procedure outlines the logical steps of performing an FRA experiment: • 1. Determine the physicochemical properties of the starting material (compound as received) • 2. Estimate the solubilities of the compound in twenty-four solvents with diverse solvent properties. • 3. Design approximately sixteen crystallization experiments with appropriate solvent systems based on the results of the solubility estimations. • 4. Prepare the crystallization samples and examine their solubilities in the sixteen solvent systems at elevated temperature. • 5. Conduct the crystallization experiment according to the designed workflow. • 6. Characterize and analyze the materials isolated from the crystallization experiments.
The solubility of the API is visually estimated by the “dynamic method” in each of the twenty-four solvents. This method is used to quickly bin the solvents into different categories, such as good solvents, poor solvents, and intermediates. The following describes the general procedure of the solubility estimation: • 1. Place weighed amounts of drug in clear glass vials to which incremental volumes (20-500 μL) of solvent are added until the solution turns clear. • 2. Apply brief vortexing after each solvent addition. • 3. Calculate the approximate visual solubility of the drug in a solvent by recording the amount of solvent required to completely dissolve the known weight of drug. The preferred unit of solubility is mg/mL.
The suspensions of the drug substance in a variety of solvent systems will be subjected to temperature-cycled slurrying, which is the primary crystallization method. Sixteen sample slurries for thermo-cycled experiments should be prepared with caution to avoid complete dissolution of the solid at elevated temperatures. For slurry with a single solvent system, the initial composition should have approximately 5-10 times higher concentration than the estimated solubility value at ambient temperature. For slurry in a solvent mixture, a suspension of the compound in the antisolvent should first be prepared and followed by the introduction of the solvent to adjust the solubility. The final antisolvent to solvent volume ratio is typically between 3 and 10. Record the amount of compound initially added and the volumes of added solvent aliquots.
Appendix 1 summarizes the typical temperature programs for each experiment. Usually three heat-cool-heat temperature cycles are used. The initial fast thermocycling runs help preliminarily assessing the dissolution behavior of the samples. The slow thermocycling runs focus on generating crystals and increasing the crystallinity and form purity.
If the sample remains a clear solution after the initial thermocycling, the solution is cooled to induce super saturation. During cooling, the original solution may become supersaturated and further reach the metastable limit when spontaneous crystallization starts. Usually the final temperature is 5° C. and the cooling rate is 0.1° C. per minute to facilitate crystal growth.
If the sample is still a clear solution at 5° C., the sample vial will be transferred into a −20° C. freezer for at least 2-3 days. The sample should be regularly examined by visual inspection and/or polarized light microscope for signs of solid formation.
The antisolvents identified during the initial solubility estimation can be used for adjusting the solubility of the drug substance in the primary solvent. The combination of a solvent with a miscible antisolvent provides a continuous solvent space, which potentially maximizes the possibility of capturing a crystalline form. […]

For series [2] the following is noted: model compounds; * = low energy form; cited from earlier work.

Entries after “also recorded” stand apart in the source; their conditions may differ.

For the molecule `COc1ccc2c(c1)c(CC(=O)O)c(C)n2C(=O)c1ccc(Cl)cc1` [Indomethacin], in series [1], the FRA_TC result was “α, β, γ” and the “Forms Found by FRA” value is given as “α, β, γ*”. In addition, the “Reported Forms in the Literature” value in series [2] is “α, β, γ*”.

In the case of `Nc1ccc(S(=O)(=O)Nc2nccs2)cc1` [Sulfathiazole], in series [1], the FRA_TC entry is given as “I, II, III, IV” and the “Forms Found by FRA” value is on record as “I, II, III*, IV*”. Also, the “Reported Forms in the Literature” value in series [2] is given as “I, II, III*, IV*, V”.

With `O=C(c1ccccc1)c1ccc2n1CCC2C(=O)O` (stereo not shown) [Ketorolac free acid], in series [1] (forms from antisolvent addition), the FRA_AS entry was “solvate”. For the same molecule, in series [1], the “Forms Found by FRA” value is on record as “I*, solvate”. For the same molecule, in series [2], the “Reported Forms in the Literature” value is listed as “I*, II, III, solvate”.

On to `CN1C(C(=O)Nc2ccccn2)=C(O)c2ccccc2S1(=O)=O` [Piroxicam], for which, in series [1], the FRA_EV entry is on record as “I, II”; the FRA_TC result is reported as “I, II,; also recorded: hydrate”; the “Forms Found by FRA” value is on record as “I*, II, hydrate”. Moreover, the “Reported Forms in the Literature” value in series [2] is on record as “I*, II, III, hydrate”.

`CCNC(=O)CCC/C=C\C[C@@H]1[C@@H](/C=C/[C@@H](O)CCc2ccccc2)[C@H](O)C[C@@H]1O` [bimatoprost, Bimatoprost]: the “forms identified or generated by FRA” value in series [1] is given as “capture both forms”.

Consider `NC(=O)N1c2ccccc2C=Cc2ccccc21` [Carbamazepine (E), Carbamazepine], for which, in series [1], the FRA_EV result was “γ”; the FRA_TC entry was “α, β, γ”; the “Forms Found by FRA” value is recorded as “α*, β*, γ”. Besides, the “Reported Forms in the Literature” value in series [2] is recorded as “α*, β*, γ,; also recorded: dihydrate, solvate”.

As for `NC(N)=Nc1nc(CSCCC(N)=NS(N)(=O)=O)cs1` [Famotidine], in series [1], the FRA_EV entry is “A, C”; the FRA_TC entry was “A, C”; the “Forms Found by FRA” value is on record as “A*, B, C; also recorded: (new form)”. In addition, the “Reported Forms in the Literature” value in series [2] is “A*, B”.

As for `COC(=O)Nc1nc2ccc(C(=O)c3ccccc3)cc2[nH]1` [Mebendazole], in series [1], the FRA_TC entry is recorded as “A, B, C” and the “Forms Found by FRA” value is “A*, B, C”. Besides, the “Reported Forms in the Literature” value in series [2] is “A*, B, C”.

On to `O=C(O)c1cc(-c2ccc(F)cc2F)ccc1O` [Diflunisal], for which, in series [1], the FRA_EV result is given as “I, IV,; also recorded: solvate” and the FRA_TC result was “I, II, III, IV”.

With `CCCCCCCCCCCCCCCCCC(=O)O` [Stearic acid (E), Stearic acid], in series [1], the “forms identified or generated by FRA” value was “both enantiotropic polymorphs”; the FRA_TC result is listed as “B, C”; the “Forms Found by FRA” value is on record as “B*, C*”. The “Reported Forms in the Literature” value in series [2] is on record as “A, B*, C*, E”.
